Data on 61 compounds can be found in PubChem BioAssay AID1645848.

Structures are written as SMILES. ≈ marks a conversion by molar mass, not a printed value.

For the data set the following is noted: buffer; pH 7.4; 6.0 h; 150.0 µM.
By solubility (kinetic) is commonly meant the concentration staying in solution when a stock, usually in DMSO, is diluted into the medium. In turn, `CC(=O)c1c(C)[nH]c(C(=O)Nc2ccc(Cl)cc2)c1C` gave a solubility (kinetic) of 1.96 µg/mL (≈ 6.72 µM).

`O=C1Nc2ccccc2/C1=C\c1ccc(O)c(F)c1`: the solubility (kinetic) is 9.29 µg/mL (≈ 36.4 µM). Against the preceding compound, the solubility kinetic is about 4.7-fold higher.

`O=C1CCCc2cc(S(=O)(=O)Nc3cnccc3C(=O)Nc3nc(-c4ccccc4)cs3)ccc2N1` came in with a solubility (kinetic) of 62.9 µg/mL (≈ 121 µM).

In turn, `CC(C)(C)c1ccc(C(=O)Nc2cn3cc(-n4ccnc4)ccc3n2)cc1` showed a kinetic solubility of less than 1 µg/mL.

Turning to `Nc1scc2c(C(=O)O)nn(-c3ccccc3)c(=O)c12`, the kinetic solubility is 23.9 µg/mL (≈ 83.1 µM).

Compound `Fc1cnc(-c2ccccc2C(F)F)nc1NCc1ccc(-n2ccnn2)cc1` showed a kinetic solubility of less than 1 µg/mL.

For `COc1cc(C(=O)NC2CCCc3c2[nH]c2c(Cl)cccc32)cc(OC)c1OC` (stereo unspecified), the kinetic solubility is less than 1 µg/mL.

In turn, `CCCNC(=O)c1ccc2c(c1)ncn2-c1cc(C)cc(C)c1` registered a kinetic solubility of less than 1 µg/mL.

Compound `O=c1cc(-c2ccccc2)oc2cc(O)cc(O)c12` registered a solubility (kinetic) of less than 1 µg/mL.

In turn, `CC1=C(C(=O)Nc2nc3ccccc3s2)C(c2[nH]ncc2Cl)N=C(Nc2nc3ccccc3o2)N1` (stereo unspecified) came in with a solubility (kinetic) of less than 1 µg/mL.

Consider `CC(C)=CCNc1ncnc2nc[nH]c12`, for which the solubility (kinetic) is greater than 30 µg/mL.

`O=C(Nc1nc(-c2ccccc2)cs1)c1ccncc1NS(=O)(=O)c1ccccc1` showed a solubility (kinetic) of 21.2 µg/mL (≈ 48.5 µM).

Take `CCOc1ccc(CCNC(=O)c2cc3sccc3n2Cc2ccccn2)cc1OCC`: the solubility (kinetic) is less than 1 µg/mL.

Consider `CN(C)CCCN1c2ccc(O)cc2Sc2ccc(Cl)cc21`, for which the solubility (kinetic) is greater than 49 µg/mL.

`CCc1cccc(NC(=O)c2c(C)oc3nc(C)nc(N4CCCC4)c23)c1` displayed a solubility (kinetic) of 14.8 µg/mL (≈ 40.6 µM).

`Cc1ccc(OCCn2c(CCNC(=O)c3ccccc3Br)nc3ccccc32)cc1`: the solubility (kinetic) was less than 1 µg/mL.

On to `COc1ccc(NC(=O)c2c(C)cccc2C)cc1S(=O)(=O)Nc1ccc(Br)cc1`, for which the kinetic solubility is less than 1 µg/mL.

`FC(F)(F)c1ccccc1-c1nc(NCc2ccc(-c3cccnc3)cc2)c2ccccc2n1` gave a solubility (kinetic) of less than 1 µg/mL.

In turn, `COc1ccc(-n2c(C)c(C(C)=O)c3ccccc32)cc1` showed a kinetic solubility of less than 1 µg/mL.

`CCn1c(C(=O)N2CCCC(C(=O)NCCc3ccc(C)cc3)C2)cc2sccc21` (stereo unspecified) returned a kinetic solubility of 17.1 µg/mL (≈ 40.3 µM).

`CCCc1cc(=O)oc2c3c(c4c(c12)OC(C)(C)C=C4)OC(C)C(C)C3O` (stereo unspecified) had a solubility (kinetic) of less than 1 µg/mL.

The compound `O=C(Nc1ccc(C(=O)Nc2nccs2)cc1)c1ccc2ccccc2c1` had a solubility (kinetic) of less than 1 µg/mL.

The compound `O=C1NCc2cc(-c3cc4c(ccn4Cc4ccncc4)c(N4CCOCC4)n3)ccc21` showed a kinetic solubility greater than 94 µg/mL.

Take `Cc1nn(CCc2nc(-c3ccccc3)cs2)c2[nH]c(=O)cc(C(F)(F)F)c12`: the kinetic solubility worked out at 1.26 µg/mL (≈ 3.12 µM).

Turning to `Fc1cc(Nc2nc(-c3ccncc3)nc3ccccc23)ccc1N1CCCCC1`, the solubility (kinetic) was less than 1 µg/mL.

Consider `CO[C@@H]1[C@H](N(C)C(=O)c2ccccc2)C[C@H]2O[C@]1(C)n1c3ccccc3c3c4c(c5c6ccccc6n2c5c31)C(=O)NC4`, for which the solubility (kinetic) was less than 1 µg/mL.

`CCCCn1cnc2cc(NC(=O)c3cc(OC)c(OC)c(OC)c3)ccc21` registered a solubility (kinetic) of 48.1 µg/mL (≈ 125 µM).

In turn, `FC(F)(F)c1cccc(N2CCN(C(=S)Nc3nccc4ccccc34)CC2)c1` registered a kinetic solubility of less than 1 µg/mL.

`Cc1nn(CCc2nc(-c3ccc(OC(F)F)cc3)cs2)c2[nH]c(=O)cc(C(F)(F)F)c12` registered a kinetic solubility of less than 1 µg/mL.

With `CC(=O)c1ccc(-c2csc(N3CCC(C(N)=O)CC3)n2)cc1`, the solubility (kinetic) is 6.11 µg/mL (≈ 18.6 µM).

The compound `COc1cccc(-c2nc(-c3c(C)noc3C)cc3[nH]c(C)cc23)c1OC` came in with a kinetic solubility of 20.4 µg/mL (≈ 56.2 µM).

As for `CCOP(=O)(Cc1ccc(C(=O)Nc2ccc(Br)cc2C#N)cc1)OCC`, the kinetic solubility is 14.9 µg/mL (≈ 33.1 µM).

Take `CC(=O)Nc1nc(-c2ccc3c(c2)CCN3C(=O)c2ccccc2C)c(C)s1`: the solubility (kinetic) is less than 1 µg/mL.

For the compound `Cc1cnc(CNc2nc(-c3cccc(NS(C)(=O)=O)c3)nc3ccccc23)cn1`, the solubility (kinetic) came to 44 µg/mL (≈ 105 µM).

Compound `Cc1ccc(S(=O)(=O)Nc2ccccc2C(=O)Nc2nc(-c3ccccc3)c(C)s2)cc1` showed a solubility (kinetic) of less than 1 µg/mL.

As for `COc1nccc(-c2nc(Nc3ccc(F)c(F)c3)c3ccccc3n2)c1OC`, the kinetic solubility is less than 1 µg/mL.

In turn, `COC(=O)c1ccc(NC(=O)c2nc3ccccc3n(C)c2=O)cc1` came in with a kinetic solubility of less than 1 µg/mL.

Regarding `Cc1cccc(OCC(=O)Nc2ccc3nc(Nc4cccc(Cl)c4)cc(C)c3c2)c1`, the kinetic solubility was less than 1 µg/mL.

In turn, `CNC(=O)C1CCN(C(=O)c2ccc(-c3ncc4cnc(-c5ccccc5)cn34)cc2)CC1` returned a solubility (kinetic) of 40.8 µg/mL (≈ 92.7 µM).

Compound `CC(C)(C)c1ccc(-c2nc(SCCCOc3ccccc3)n3[nH]c(=O)cc3n2)cc1` displayed a solubility (kinetic) of less than 1 µg/mL.

`COc1ccc2[nH]c3c(c2c1)CCNC31CCN(S(=O)(=O)c2c(C)noc2C)CC1`: the solubility (kinetic) came out at 7.38 µg/mL (≈ 17.1 µM).

In the case of `CC[C@H](NC(=O)[C@H](C)NC)C(=O)N1C[C@@H](O)C[C@H]1Cc1c(-c2[nH]c3cc(F)ccc3c2C[C@@H]2C[C@H](O)CN2C(=O)[C@H](CC)NC(=O)[C@H](C)NC)[nH]c2cc(F)ccc12`, the kinetic solubility is 75.2 µg/mL (≈ 93.2 µM).

The compound `CC(C)c1ccc(CC(=O)N2CCCc3ncc(C(=O)Nc4cccnc4)cc32)cc1` came in with a kinetic solubility of 27.7 µg/mL (≈ 66.9 µM).

In turn, `O=S(=O)(Nc1cccc2ccncc12)c1ccc(NCc2cccc(Cl)c2O)cc1` registered a solubility (kinetic) of 4.67 µg/mL (≈ 10.6 µM).

With `CCN1C(=O)c2ccccc2[S@](=O)c2ccc(C(=O)N[C@H](C)c3ccc(Br)cc3)cc21`, the kinetic solubility was less than 1 µg/mL.

In turn, `Cc1ccc(S(=O)(=O)Nc2cnccc2C(=O)Nc2cccc3ccccc23)cc1` returned a kinetic solubility of 46.4 µg/mL (≈ 111 µM).

Compound `COc1ccc(OC)c(-c2nnc3ccc(-c4ccc(OC)c(O[C@@H]5CCOC5)c4)nn23)c1` showed a solubility (kinetic) greater than 66 µg/mL.

For `CCCCCn1cc2c(c1-c1ccc(Br)cc1)c(=O)n(C)c(=O)n2C`, the solubility (kinetic) is less than 1 µg/mL.

Compound `O=C1Nc2c(Cl)cccc2/C1=C\c1cc(Cl)c(O)c(Cl)c1` displayed a solubility (kinetic) of 7.3 µg/mL (≈ 21.4 µM).

`Cc1ccc(-c2cc(C(=O)Nc3ccc(S(N)(=O)=O)cc3)c3ccccc3n2)cc1C` yielded a kinetic solubility of less than 1 µg/mL.

Take `O=C(Nc1ccc(Cl)cc1)Nc1ccc(Cl)c(Cl)c1`: the kinetic solubility was less than 1 µg/mL.

For `COc1ccc(NC(=O)c2ccc[nH]2)cc1S(=O)(=O)Nc1ccc(Br)cc1`, the solubility (kinetic) was less than 1 µg/mL.

In the case of `CCOc1ccc(CCNC(=O)c2cc3sccc3n2C)cc1OCC`, the solubility (kinetic) stood at 8.05 µg/mL (≈ 21.6 µM).

`Cc1cc(C)c(CNC(=O)c2nc(-c3cccc(CO)c3)cc3c2ccn3C)c(=O)[nH]1`: the solubility (kinetic) came to 24.7 µg/mL (≈ 59.4 µM). Compared with the last compound, the solubility kinetic is about 3.1-fold higher.

Compound `COc1ccc(-n2nc(C)c([C@@H]3C=C[C@@H](NCc4ccc(N(C)C)cc4)C3)c2C)cc1` had a solubility (kinetic) of 50.3 µg/mL (≈ 121 µM).

`CNc1nc(-c2ccc3c(N)n[nH]c3c2)cc(N2C[C@@H](C(=O)NC3CCCCC3)CC[C@H]2C)n1` registered a solubility (kinetic) of 15.2 µg/mL (≈ 32.9 µM). Compared with the last compound, the solubility kinetic is about 3.3-fold lower.

The compound `Br.CC(Cc1ccc(O)cc1)NCC(O)c1cc(O)cc(O)c1` (stereo unspecified) yielded a kinetic solubility greater than 45 µg/mL.

Compound `CCN1C(=O)c2ccccc2S(=O)c2ccc(NC(=O)Cc3ccc(OC)cc3)cc21` (stereo unspecified) had a kinetic solubility of 6.41 µg/mL (≈ 14.7 µM).

Take `O=[S+]([O-])(Nc1cnc2ccccc2c1)c1ccc(NCc2ccc(Cl)cc2O)cc1`: the kinetic solubility is less than 1 µg/mL.

In the case of `CCOc1ccc(C2C(C(=O)Nc3ccccc3OC)=C(C)Nc3c(C(=O)Nc4cccc(C)c4)cnn32)cc1` (stereo unspecified), the kinetic solubility was less than 1 µg/mL.

`Cc1ccc(NS(=O)(=O)c2cc3c(cc2N[C@H](C)CO)NC(=O)CC3)cc1C` gave a solubility (kinetic) greater than 60 µg/mL.
